Measurements from patent US5962314A, “Calcium receptor-active molecules” (priority 1997, dated 1999).

What was measured:
[1] = molecular target: T1, parathyroid cell calcium receptor (Homo sapiens, UniProt P41180); assay: mobilization of intracellular Ca2+ in human parathyroid cells; format: cell-based; conditions: neomycin B 10 or 20 μM, spermine 300 μM, Mg2+ 10 mM
T1 construct: Dissociated parathyroid cells were prepared from a parathyroid adenoma obtained by surgery from a patient with primary hyperparathyroidism; endogenous in cells; host or cells: human parathyroid cells (adenoma or hyperplastic glands from patients)
T1 sequence (P41180 20-1078): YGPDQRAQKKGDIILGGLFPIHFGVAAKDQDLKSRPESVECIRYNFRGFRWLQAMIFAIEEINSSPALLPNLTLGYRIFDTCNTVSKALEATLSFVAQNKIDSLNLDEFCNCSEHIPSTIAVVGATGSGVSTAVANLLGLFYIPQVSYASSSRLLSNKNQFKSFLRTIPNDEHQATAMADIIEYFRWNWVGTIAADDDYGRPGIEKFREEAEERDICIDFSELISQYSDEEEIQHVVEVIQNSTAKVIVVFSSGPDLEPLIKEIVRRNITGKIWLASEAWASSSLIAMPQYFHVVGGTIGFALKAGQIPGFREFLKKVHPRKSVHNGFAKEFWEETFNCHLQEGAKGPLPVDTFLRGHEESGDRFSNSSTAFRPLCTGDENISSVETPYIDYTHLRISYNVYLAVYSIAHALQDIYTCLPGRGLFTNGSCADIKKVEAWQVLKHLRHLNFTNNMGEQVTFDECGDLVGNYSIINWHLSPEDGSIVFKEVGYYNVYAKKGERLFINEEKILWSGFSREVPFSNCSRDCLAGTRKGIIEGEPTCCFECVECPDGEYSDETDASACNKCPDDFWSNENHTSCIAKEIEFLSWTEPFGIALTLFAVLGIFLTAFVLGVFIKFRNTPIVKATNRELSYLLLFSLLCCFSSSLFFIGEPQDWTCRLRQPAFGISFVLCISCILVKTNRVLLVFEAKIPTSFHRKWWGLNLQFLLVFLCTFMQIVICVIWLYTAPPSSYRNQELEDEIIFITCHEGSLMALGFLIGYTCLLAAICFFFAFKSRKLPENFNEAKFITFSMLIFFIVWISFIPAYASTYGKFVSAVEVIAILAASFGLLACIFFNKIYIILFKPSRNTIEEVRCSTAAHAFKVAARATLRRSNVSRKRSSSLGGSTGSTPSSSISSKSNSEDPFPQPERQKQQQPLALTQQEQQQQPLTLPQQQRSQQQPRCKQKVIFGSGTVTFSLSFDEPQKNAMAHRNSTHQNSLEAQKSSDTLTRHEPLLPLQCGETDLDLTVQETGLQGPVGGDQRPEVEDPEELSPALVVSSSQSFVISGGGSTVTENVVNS
Method: Human parathyroid glands, were obtained from patients undergoing surgical removal of parathyroid tissue for primary or uremic hyperparathyroidism (uremic HPT), and were treated similarly to bovine tissue.
The cells were then pelleted, resuspended in the same buffer, but lacking the ester, and incubated a further 15 minutes at 37° C. The cells were subsequently washed twice with PCB containing 0.5 mM CaCl2 and 0.5% BSA and maintained at room temperature (about 20° C.). Immediately before use, the cells were diluted five-fold with prewarmed 0.5 mM CaCl2 -PCB to obtain a final BSA concentration of 0.1%. The concentration of cells in the cuvette used for fluorescence recording was 1-2×10^6 /ml.

[2] = tested on: cyclic AMP; format: cell-based, bovine
Method: Cells were incubated as above for PTH secretion studies and at the end of the incubation, a 0.15-ml sample was taken and transferred to 0.85 ml of hot (70° C.) water and heated at this temperature for 5-10 minutes. The tubes were subsequently frozen and thawed several times and the cellular debris sedimented by centrifugation. Portions of the supernatant were acetylated and cyclic AMP concentrations determined by radioimmunoassay.
Each value is the mean±SEM of three experiments.

[3] = tested on: serum ionized calcium; assay: serum ionized Ca2+ in rats; format: in vivo, rat; conditions: NPS R-568 oral
Method: Compounds shown to activate the bovine parathyroid cell calcium receptor in vitro were tested for hypocalcemic activity in vivo. Male Sprague-Dawley rats (200 g) were maintained on a low calcium diet for one week prior to receiving test substance or vehicle as control. Blood was collected from the tail vein three hours after the intra-peritoneal administration of NPS 467. […] Serum total calcium, albumin and phosphate were measured by techniques well known in the art.
Rats (male, Sprague-Dawley, 250-300 g) were fed standard rat chow and fasted overnight prior to the experiment. NPS R-467 was suspended in corn oil and administered as a single oral dose through a gavage needle. Three hours later a sample of blood was taken from the tail vein and assessed for ionized Ca^2+ levels.

[4] = tested on: serum parathyroid hormone; assay: serum PTH in a human; format: in vivo; conditions: single oral doses
Source text: A range of single oral doses was used to assess safety, tolerance, and changes in primary hyperparathyroidism markers (e.g., plasma concentrations of parathyroid hormone and ionized serum calcium) and of serum calcitonin.

[5] = molecular target: T2, parathyroid cell calcium receptor (Bos taurus, UniProt P35384); assay: Cl- current in Xenopus oocytes injected with bovine parathyroid cell mRNA; format: cell-based; design: Whole pieces of gland were used to prepare mRNA that directs the expression of the calcium receptor in Xenopus oocytes; expressed in transfected cells; host or cells: Xenopus laevis oocytes injected with parathyroid poly(A)+ mRNA; conditions: oocytes expressing parathyroid calcium receptor; fendiline 100 μM
T2 sequence (P35384 20-1085): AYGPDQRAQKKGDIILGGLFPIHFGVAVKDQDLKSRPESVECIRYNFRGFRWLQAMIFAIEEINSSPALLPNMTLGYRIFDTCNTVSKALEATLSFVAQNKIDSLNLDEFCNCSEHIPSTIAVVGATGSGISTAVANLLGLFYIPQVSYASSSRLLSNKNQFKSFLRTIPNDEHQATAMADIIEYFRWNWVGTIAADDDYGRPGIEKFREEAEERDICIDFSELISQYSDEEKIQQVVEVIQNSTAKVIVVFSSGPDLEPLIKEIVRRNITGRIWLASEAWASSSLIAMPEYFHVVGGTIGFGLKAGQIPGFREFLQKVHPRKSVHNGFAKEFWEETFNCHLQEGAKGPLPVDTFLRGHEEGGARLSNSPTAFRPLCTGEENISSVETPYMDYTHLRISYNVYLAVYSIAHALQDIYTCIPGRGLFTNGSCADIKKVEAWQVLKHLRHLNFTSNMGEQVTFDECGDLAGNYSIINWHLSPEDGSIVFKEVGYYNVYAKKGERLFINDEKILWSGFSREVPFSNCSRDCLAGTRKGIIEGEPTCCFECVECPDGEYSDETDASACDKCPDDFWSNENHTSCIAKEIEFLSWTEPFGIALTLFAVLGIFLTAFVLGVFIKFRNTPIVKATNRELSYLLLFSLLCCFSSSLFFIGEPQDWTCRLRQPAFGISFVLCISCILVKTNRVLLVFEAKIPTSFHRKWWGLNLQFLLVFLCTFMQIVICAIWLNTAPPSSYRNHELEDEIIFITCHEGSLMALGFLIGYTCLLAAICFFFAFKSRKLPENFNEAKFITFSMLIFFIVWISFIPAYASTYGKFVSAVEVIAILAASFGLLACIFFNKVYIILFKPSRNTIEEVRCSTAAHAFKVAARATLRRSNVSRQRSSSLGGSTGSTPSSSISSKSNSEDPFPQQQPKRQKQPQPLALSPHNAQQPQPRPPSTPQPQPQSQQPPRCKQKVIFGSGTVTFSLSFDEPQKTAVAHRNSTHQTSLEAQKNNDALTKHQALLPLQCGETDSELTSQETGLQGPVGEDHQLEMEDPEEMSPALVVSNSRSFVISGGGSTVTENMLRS
Method: Following incubation, an oocyte was placed into a 100-μl plastic chamber and superfused with MBS at a flow rate of 0.5 ml/min using a peristaltic pump. Test molecules or inorganic polycations were added by rapidly moving the tubing into different buffers. Recording and current-passing electrodes were constructed from thin-wall capillary tubing pulled to a resistance of 1-3 Mohms and filled with 3 M KCl. […] Currents were recorded directly onto a strip chart recorder.

Compound	effect on [Ca2+]i in human parathyroid cells [1]	effect on [Ca2+]i in human parathyroid cells ([1]; listed as Neomycin B)	effect on [Ca2+]i in human parathyroid cells ([1]; listed as neomycin B)	effect on isoproterenol-induced increases in cyclic AMP [2]	hypocalcemic response after complete nephrectomy ([3]; prior complete nephrectomy)	effect on serum Ca2+, oral ([3]; rats)	effect on plasma PTH in human [4]	effect on Cl- current / intracellular Ca2+ [5]
NC[C@@H]1O[C@H](O[C@H]2[C@@H](O)[C@H](O[C@@H]3[C@@H](O)[C@H](N)C[C@H](N)[C@H]3O[C@H]3O[C@H](CN)[C@@H](O)[C@H](O)[C@H]3N)O[C@@H]2CO)[C@H](N)[C@@H](O)[C@@H]1O [Neomycin]	large increase in [Ca^2+ ]i	not only a transient, but additionally a steady-state increase in [Ca^2+ ]i	transient and sustained increases in [Ca^2+ ]i	depressed isoproterenol-induced increases in cyclic AMP				
COc1cccc([C@@H](C)NCCCc2ccccc2Cl)c1 [NPS R-568, (R)-(+)-N-[3-(2-chlorophenyl)propyl]-α-methyl-3-methoxybenzylamine]					only marginally affected	dose-dependent decrease in the levels of serum Ca^2+	transient dose-dependent decrease in plasma PTH concentration	potent molecule active on Xenopus oocytes expressing the parathyroid cell calcium receptor
